Results as given in article PMC6683298, “Identifying potential novel drugs against Helicobacter pylori by targeting the essential response regulator HsrA” (Scientific Reports, 2019).

Molecular target: T1, HsrA response regulator (HP1043) (Helicobacter pylori, UniProt O25684)
T1 construct: gene HP_1043; N-terminal 6xHis tag, removed with thrombin; 223 residues; symmetric dimer
T1 sequence (O25684 1-223): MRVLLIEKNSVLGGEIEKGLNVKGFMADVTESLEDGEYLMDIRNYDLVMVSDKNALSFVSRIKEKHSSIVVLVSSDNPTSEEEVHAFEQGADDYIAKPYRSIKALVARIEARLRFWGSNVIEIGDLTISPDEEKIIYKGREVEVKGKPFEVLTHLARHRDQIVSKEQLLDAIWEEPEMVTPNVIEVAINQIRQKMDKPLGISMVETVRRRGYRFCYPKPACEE
Assay: isothermal titration calorimetry
Type: binding
Settings: read-out: ITC^a / Kd
From the text: isothermal titration calorimetry on HsrA response regulator (HP1043)

Row | Structure (SMILES) | Kd [µM]
1 | COc1ccc([C@@H]2CC(=O)c3c(O)cc(O)cc3O2)cc1O [hesperetin] | 26
2 | O=c1cc(-c2ccccc2)oc2cc(O)cc(O)c12 [chrysin] | 17
3 | O=c1cc(-c2ccc(O)cc2)oc2cc(O)cc(O)c12 [apigenin] | 20
4 | O=c1c(O)c(-c2ccc(O)cc2)oc2cc(O)cc(O)c12 [kaempferol] | 33
